Measurements reported in US11548878B2, “Emopamil binding protein binding agent and use thereof” (FUJIFILM Toyama Chemical Co., Ltd., priority 2017, dated 2023).

Target: T1, EBP (Homo sapiens, UniProt Q15125)
T1 construct: A membrane fraction was collected from sigma-1 receptor-deficient human neuroblastoma (SH-SY5Y) cells; endogenous in cells; host or cells: sigma-1 receptor-deficient SH-SY5Y human neuroblastoma cells (membrane fraction)
Experiment: EBP Binding Test (Test Example 1): tritium-labeled Compound A binding to membrane fractions of sigma-1 receptor-deficient SH-SY5Y cells with EBP deleted or overexpressed
Description: The binding ability of Compound A to EBP was examined. The test was carried out in accordance with Receptor Signal Transduction Protocols, pp. 135-164 (ISBN 978-1-61779-125-3).
A membrane fraction was collected from sigma-1 receptor-deficient human neuroblastoma (SH-SY5Y) cells, in which EBP was deleted or was overexpressed. Inactivated fetal bovine serum was added to a liquid medium DMEM (Dulbecco's Modified Eagle's Medium) to a final concentration of 10%, and then, a Penicillin-Streptomycin solution (10000 U/mL Penicillin-10000 μg/mL Streptmycin) was added to the medium to a final concentration of 100 U/mL Penicillin-100 μg/mL Streptmycin. The SH-SY5Y cells were cultured in the thus prepared medium.
The method of preparing a membrane fraction is as follows. The cells cultured to a subconfluent state were recovered using a cell scraper, and were then suspended in a 50 mM Tris-HCl (pH=7.4) buffer, followed by disintegrating the cells with an ultrasonic disintegrator. The disintegrated solution was centrifuged (1000 g, 10 minutes), and the supernatant was then ultracentrifuged (28000 rpm, 30 minutes). Thereafter, the obtained precipitate was re-suspended in a 50 mM Tris-HCl (pH=7.4) buffer to obtain a membrane fraction. Regarding the thus prepared membrane fraction, the protein concentration was measured according to a BCA method, and the membrane fraction was then adjusted to a concentration of approximately 1 mg/mL. […]
The receptor binding test method is as follows. […] Thereafter, a liquid scintillation cocktail was added thereto, and the radiation dose (CPM) in each well was then measured using a scintillation counter.
The specific binding ability of Compound A to EBP was determined by subtracting the radiation dose of the control (Non-specific binding) from the radiation dose derived from the tritium-labeled Compound A at each concentration (Total binding). Since the amount of the protein used was different depending on the cell membrane, CPM per μg of the membrane fraction protein used in the reaction was calculated (CPM/protein amount).

T1 sequence (Q15125 2-230 limits assumed): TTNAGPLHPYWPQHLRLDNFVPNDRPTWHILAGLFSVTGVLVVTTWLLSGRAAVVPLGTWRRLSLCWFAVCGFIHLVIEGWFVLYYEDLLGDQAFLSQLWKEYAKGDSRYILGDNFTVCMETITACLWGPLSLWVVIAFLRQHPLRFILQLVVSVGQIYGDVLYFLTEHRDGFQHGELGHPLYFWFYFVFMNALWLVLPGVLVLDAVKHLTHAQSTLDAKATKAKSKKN

affinity for EBP (conclusion from FIG. 1 and FIG. 2): high affinity | radiation dose (specific binding, CPM/protein amount) in sigma-1 receptor-deficient and EBP-deficient cells compared with sigma-1 receptor-deficient cells (membrane fraction of SH-SY5Y cells, tritium-labeled Compound A 0.05-100.0 nM, 37° C. for 2 hours, FIG. 1): lower | radiation dose (specific binding, CPM/protein amount) in sigma-1 receptor-deficient and EBP-overexpressing cells compared with sigma-1 receptor-deficient cells (membrane fraction of SH-SY5Y cells, tritium-labeled Compound A 0.05-100.0 nM, 37° C. for 2 hours, FIG. 2): higher
SMILES: OC1CN(CCCOCCc2ccc3sccc3c2)C1 [Compound A]
